# Target: T1, human TLR7 (Homo sapiens, UniProt Q9NYK1)
# T1 construct: host or cells: HEK293 (HEK-Blue hTLR7)
# T1 sequence (Q9NYK1 27-1049): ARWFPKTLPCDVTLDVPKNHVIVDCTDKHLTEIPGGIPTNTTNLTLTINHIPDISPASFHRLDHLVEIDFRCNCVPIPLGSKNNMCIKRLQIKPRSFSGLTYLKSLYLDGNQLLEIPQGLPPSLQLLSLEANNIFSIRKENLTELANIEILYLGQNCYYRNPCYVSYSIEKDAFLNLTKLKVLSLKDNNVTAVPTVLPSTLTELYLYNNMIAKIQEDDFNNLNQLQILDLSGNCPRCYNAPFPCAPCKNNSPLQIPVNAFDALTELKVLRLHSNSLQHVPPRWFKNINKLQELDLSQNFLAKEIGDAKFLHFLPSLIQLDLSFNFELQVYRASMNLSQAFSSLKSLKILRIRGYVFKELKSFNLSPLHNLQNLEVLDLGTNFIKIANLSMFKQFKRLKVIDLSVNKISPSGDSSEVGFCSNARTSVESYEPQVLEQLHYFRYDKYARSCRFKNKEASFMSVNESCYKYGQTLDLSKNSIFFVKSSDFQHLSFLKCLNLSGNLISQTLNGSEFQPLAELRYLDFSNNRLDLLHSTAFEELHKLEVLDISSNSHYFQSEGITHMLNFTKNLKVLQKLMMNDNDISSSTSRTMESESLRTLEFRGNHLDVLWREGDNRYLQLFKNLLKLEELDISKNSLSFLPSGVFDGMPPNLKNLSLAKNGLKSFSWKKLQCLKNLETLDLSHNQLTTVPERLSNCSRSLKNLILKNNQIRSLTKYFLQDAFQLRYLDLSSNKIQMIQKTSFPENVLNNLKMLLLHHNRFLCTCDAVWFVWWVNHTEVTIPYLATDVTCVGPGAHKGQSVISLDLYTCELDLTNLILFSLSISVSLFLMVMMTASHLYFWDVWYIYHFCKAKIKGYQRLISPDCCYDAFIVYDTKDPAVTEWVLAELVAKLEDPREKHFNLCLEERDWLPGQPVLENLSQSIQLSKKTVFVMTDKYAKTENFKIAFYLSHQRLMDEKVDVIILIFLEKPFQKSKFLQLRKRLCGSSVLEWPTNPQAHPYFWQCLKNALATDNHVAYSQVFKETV
# Experiment: HEK293-Blue-hTLR-7 cells assay (SEAP reporter, R848 stimulation)
# Type: cell-based
# Conditions: HEK293-Blue-hTLR7 cells, R848, 20 hrs; read-out: HEK/hTLR7 IC50
# How it was run: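 HEK293-Blue-hTLR7 cells (NF-κB/AP-1-driven SEAP reporter) were stimulated with R848 alongside serially diluted compound at 1% final DMSO for 20 h at 37 °C. Supernatant SEAP was then developed with QUANTI-Blue for 2 h at 37 °C and absorbance read at 620–655 nm; antagonism is measured as reduced reporter signal.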
row,SMILES,IC50
1,"C[C@@H]1CN(c2ccc(C#N)c3ncccc23)C[C@H](CN2CCN(c3ccc(N4CC(N)C(F)C4)nc3)CC2)O1 (stereo partly drawn) [Example 44, 5-[(2S,6R)-2-[[4-[6-(3-amino-4-fluoro-pyrrolidin-1-yl)-3-pyridyl]piperazin-1-yl]methyl]-6-methyl-morpholin-4-yl]quinoline-8-carbonitrile]",28 nM
2,"C[C@@H]1CN(c2ccc(C#N)c3ncccc23)C[C@H](CN2CCN(c3nc(N4CCNCC4)ncc3F)CC2)O1 [Example 45, 5-[(2S,6R)-2-[[4-(5-fluoro-2-piperazin-1-yl-pyrimidin-4-yl)piperazin-1-yl]methyl]-6-methyl-morpholin-4-yl]quinoline-8-carbonitrile]",15 nM
3,"Cc1nc(N2CCNCC2)nc(N2CCN(C[C@H]3CN(c4ccc(C#N)c5ncccc45)C[C@@H](C)O3)CC2)c1C [Example 46, 5-[(2S,6R)-2-[[4-(5,6-dimethyl-2-piperazin-1-yl-pyrimidin-4-yl)piperazin-1-yl]methyl]-6-methyl-morpholin-4-yl]quinoline-8-carbonitrile]",18 nM
4,"Cc1cc(N2CCN(C[C@H]3CN(c4ccc(C#N)c5ncccc45)C[C@@H](C)O3)CC2)nc(N2CCNCC2)n1 [Example 47, 5-[(2R,6S)-2-methyl-6-[[4-(6-methyl-2-piperazin-1-yl-pyrimidin-4-yl)piperazin-1-yl]methyl]morpholin-4-yl]quinoline-8-carbonitrile]",13 nM
5,"COc1cnc(N2CCNCC2)nc1N1CCN(C[C@H]2CN(c3ccc(C#N)c4ncccc34)C[C@@H](C)O2)CC1 [Example 48, 5-[(2S,6R)-2-[[4-(5-methoxy-2-piperazin-1-yl-pyrimidin-4-yl)piperazin-1-yl]methyl]-6-methyl-morpholin-4-yl]quinoline-8-carbonitrile]",9 nM
6,"C[C@@H]1CN(c2ccc(C#N)c3ncccc23)C[C@H](CN2CCN(c3nc(N4CCNCC4)nc4ccccc34)CC2)O1 [Example 49, 5-[(2R,6S)-2-methyl-6-[[4-(2-piperazin-1-ylquinazolin-4-yl)piperazin-1-yl]methyl]morpholin-4-yl]quinoline-8-carbonitrile]",29 nM
7,"C[C@@H]1CN(c2ccc(C#N)c3ncccc23)C[C@H](CN2CCN(c3nc(N4CCNCC4)ncc3C#N)CC2)O1 [Example 50, 5-[(2S,6R)-2-[[4-(5-cyano-2-piperazin-1-yl-pyrimidin-4-yl)piperazin-1-yl]methyl]-6-methyl-morpholin-4-yl]quinoline-8-carbonitrile]",16 nM
8,"C[C@@H]1CN(c2ccc(C#N)c3ncccc23)C[C@H](CN2CCN(c3ncc(C#N)c(N4CCNCC4)n3)CC2)O1 [Example 51, 5-[(2S,6R)-2-[[4-(5-cyano-4-piperazin-1-yl-pyrimidin-2-yl)piperazin-1-yl]methyl]-6-methyl-morpholin-4-yl]quinoline-8-carbonitrile]",28 nM
9,"Cc1cc(N2CCN(C[C@H]3CN(c4ccc(C#N)c5ncccc45)C[C@@H](C)O3)CC2)nc(N2C[C@@H](N)[C@@H](F)C2)n1 [Example 55, 5-[(2S,6R)-2-[[4-[2-[(3R,4S)-3-amino-4-fluoro-pyrrolidin-1-yl]-6-methyl-pyrimidin-4-yl]piperazin-1-yl]methyl]-6-methyl-morpholin-4-yl]quinoline-8-carbonitrile]",14 nM
10,"Cc1cc(N2CCN(C[C@H]3CN(c4ccc(C#N)c5ncccc45)C[C@@H](C)O3)CC2)nc(N2CCOCC(N)C2)n1 (stereo partly drawn) [Example 56, 5-[(2S,6R)-2-[[4-[2-(6-amino-1,4-oxazepan-4-yl)-6-methyl-pyrimidin-4-yl]piperazin-1-yl]methyl]-6-methyl-morpholin-4-yl]quinoline-8-carbonitrile]",56 nM
11,"Cc1cc(N2CCN(C[C@H]3CN(c4ccc(C#N)c5ncccc45)C[C@@H](C)O3)CC2)nc(NC2CNCC2C#N)n1 (stereo partly drawn) [Example 57, 5-[(2S,6R)-2-[[4-[2-[(4-cyanopyrrolidin-3-yl)amino]-6-methyl-pyrimidin-4-yl]piperazin-1-yl]methyl]-6-methyl-morpholin-4-yl]quinoline-8-carbonitrile]",27 nM
12,"Cc1cc(N2CCN(C[C@H]3CN(c4ccc(C#N)c5ncccc45)C[C@@H](C)O3)CC2)nc(N2C[C@@H]3COC[C@@H](C2)N3)n1 [Example 58, 5-[(2R,6S)-2-methyl-6-[[4-[6-methyl-2-[(1R,5R)-3-oxa-7,9-diazabicyclo[3.3.1]nonan-7-yl]pyrimidin-4-yl]piperazin-1-yl]methyl]morpholin-4-yl]quinoline-8-carbonitrile]",30 nM
13,"CO[C@H]1CN(c2nc(C)cc(N3CCN(C[C@H]4CN(c5ccc(C#N)c6ncccc56)C[C@@H](C)O4)CC3)n2)C[C@H]1N [Example 60, 5-[(2R,6S)-2-methyl-6-[[4-[6-methyl-2-[cis-3-amino-4-methoxy-pyrrolidin-1-yl]pyrimidin-4-yl]piperazin-1-yl]methyl]morpholin-4-yl]quinoline-8-carbonitrile]",11 nM
14,"Cc1cc(N2CCN(C[C@H]3CN(c4ccc(C#N)c5ncccc45)C[C@@H](C)O3)CC2)nc(N2CC3(CNCCO3)C2)n1 [Example 61, 5-[(2R,6S)-2-methyl-6-[[4-[6-methyl-2-(5-oxa-2,8-diazaspiro[3.5]nonan-2-yl)pyrimidin-4-yl]piperazin-1-yl]methyl]morpholin-4-yl]quinoline-8-carbonitrile]",8 nM
15,"C[C@@H]1CN(c2ccc(C#N)c3ncccc23)C[C@H](CN2CCN(c3cccc(C4CNCCO4)c3)CC2)O1 (stereo partly drawn) [Example 62, 5-[(2R,6S)-2-methyl-6-[[4-(3-morpholin-2-ylphenyl)piperazin-1-yl]methyl]-morpholin-4-yl]quinoline-8-carbonitrile]",18 nM
16,"Cc1cc(N2CCN(C[C@H]3CN(c4ccc(C#N)c5ncccc45)C[C@@H](C)O3)CC2)nc(N2CC(N)C(F)(F)C2)n1 (stereo partly drawn) [Example 63, 5-[(2S,6R)-2-[[4-[2-(4-amino-3,3-difluoro-pyrrolidin-1-yl)-6-methyl-pyrimidin-4-yl]piperazin-1-yl]methyl]-6-methyl-morpholin-4-yl]quinoline-8-carbonitrile]",54 nM
17,"Cc1cc(N2CCN(C[C@H]3CN(c4ccc(C#N)c5nccnc45)C[C@@H](C)O3)CC2)nc(N2CCNCC2)n1 [Example 64, 8-[(2R,6S)-2-methyl-6-[[4-(6-methyl-2-piperazin-1-yl-pyrimidin-4-yl)piperazin-1-yl]methyl]morpholin-4-yl]quinoxaline-5-carbonitrile]",5 nM
18,"Cc1cc(N2CCN(C[C@H]3CN(c4ccc(C(F)(F)F)c5nccnc45)C[C@@H](C)O3)CC2)nc(N2CCNCC2)n1 [Example 65, (2R,6S)-2-methyl-6-[[4-(6-methyl-2-piperazin-1-yl-pyrimidin-4-yl)piperazin-1-yl]methyl]-4-[8-(trifluoromethyl)quinoxalin-5-yl]morpholine]",15 nM
19,"Cc1cc(N2CCN(C[C@H]3CN(c4ccc(C#N)c5ncccc45)C[C@@H](C)O3)CC2)nc(N2CCNCC(O)C2)n1 (stereo partly drawn) [Example 66, 5-[(2S,6R)-2-[[4-[2-(6-hydroxy-1,4-diazepan-1-yl)-6-methyl-pyrimidin-4-yl]piperazin-1-yl]methyl]-6-methyl-morpholin-4-yl]quinoline-8-carbonitrile]",17 nM
20,"Cc1cc(N2CCN(C[C@H]3CN(c4ccc(C#N)n5ncc(F)c45)C[C@@H](C)O3)CC2)nc(N2CCNCC2)n1 [Example 67, 3-Fluoro-4-[(2R,6S)-2-methyl-6-[[4-(6-methyl-2-piperazin-1-yl-pyrimidin-4-yl)piperazin-1-yl]methyl]morpholin-4-yl]pyrazolo[1,5-a]pyridine-7-carbonitrile]",24 nM
21,"Cc1cc(N2CCNCC2)nc(N2CCN(C[C@H]3CN(c4ccc(C#N)c5ncccc45)C[C@@H](C)O3)CC2)n1 [Example 68, 5-[(2R,6S)-2-methyl-6-[[4-(4-methyl-6-piperazin-1-yl-pyrimidin-2-yl)piperazin-1-yl]methyl]morpholin-4-yl]quinoline-8-carbonitrile]",9 nM
22,"C[C@@H]1CN(c2ccc(C#N)n3ncc(F)c23)C[C@H](CN2CCN(c3ccc(N[C@H]4CNC[C@H]4F)nc3)CC2)O1 [Example 167, 3-fluoro-4-[(2S,6R)-2-[[4-[6-[[(3S,4R)-4-fluoropyrrolidin-3-yl]amino]-3-pyridyl]piperazin-1-yl]methyl]-6-methyl-morpholin-4-yl]pyrazolo[1,5-a]pyridine-7-carbonitrile]",14 nM
